Legend:
[1] = target: Rho-associated protein kinase 2 (Homo sapiens, UniProt O75116); experiment: Inhibition of recombinant human N-terminal GST-tagged ROCK2 catalytic domain (1 to 553 residues) expressed in baculovirus expression system using STK 2-biotin as substrate measured after 60 mins by HTRF/TR-FRET assay
[2] = target: Protein kinase C alpha type (Homo sapiens, UniProt P17252); experiment: Inhibition of human PKCalpha active using MBP as substrate after 60 mins in presence of [gamma-32]ATP by scintillation counting
CYP3A4 = CYP3A4 (Homo sapiens, UniProt P08684); experiment: Inhibition of CYP3A4 (unknown origin) at 10 uM; assay type: ADME
Rhodopsin kinase GRK1 = target: T1, Rhodopsin kinase GRK1 (Homo sapiens, UniProt Q15835); experiment: Inhibition of recombinant human GST-tagged GRK1 expressed in baculovirus infected fall armyworm Sf9 cells after 60 mins by LanthaScreen eu kinase binding assay
T1 sequence (Q15835 whole entry): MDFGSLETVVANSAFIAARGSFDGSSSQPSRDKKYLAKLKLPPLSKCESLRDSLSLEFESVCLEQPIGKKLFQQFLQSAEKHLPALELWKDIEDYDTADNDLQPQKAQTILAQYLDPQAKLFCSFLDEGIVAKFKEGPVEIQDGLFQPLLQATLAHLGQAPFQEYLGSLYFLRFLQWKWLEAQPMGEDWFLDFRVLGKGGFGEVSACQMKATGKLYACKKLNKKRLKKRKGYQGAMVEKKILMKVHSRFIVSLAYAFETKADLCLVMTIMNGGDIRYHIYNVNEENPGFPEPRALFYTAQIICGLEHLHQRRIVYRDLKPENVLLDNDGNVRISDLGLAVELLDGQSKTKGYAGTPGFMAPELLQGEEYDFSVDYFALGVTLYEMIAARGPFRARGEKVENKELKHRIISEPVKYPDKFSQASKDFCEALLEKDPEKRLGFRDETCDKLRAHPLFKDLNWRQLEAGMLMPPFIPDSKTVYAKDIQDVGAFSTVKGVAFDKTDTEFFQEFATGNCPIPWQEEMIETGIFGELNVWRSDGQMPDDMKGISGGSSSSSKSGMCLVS

[3] = target: T2, G protein-coupled receptor kinase 3 (Homo sapiens, UniProt P35626); experiment: Inhibition of recombinant human full length GST-tagged GRK3 expressed in baculovirus using ulight topo2alpha as substrate preincubated for 60 mins followed by substrate addition measured after 10 mins by Lance TR-FRET assay
T2 sequence (P35626 whole entry): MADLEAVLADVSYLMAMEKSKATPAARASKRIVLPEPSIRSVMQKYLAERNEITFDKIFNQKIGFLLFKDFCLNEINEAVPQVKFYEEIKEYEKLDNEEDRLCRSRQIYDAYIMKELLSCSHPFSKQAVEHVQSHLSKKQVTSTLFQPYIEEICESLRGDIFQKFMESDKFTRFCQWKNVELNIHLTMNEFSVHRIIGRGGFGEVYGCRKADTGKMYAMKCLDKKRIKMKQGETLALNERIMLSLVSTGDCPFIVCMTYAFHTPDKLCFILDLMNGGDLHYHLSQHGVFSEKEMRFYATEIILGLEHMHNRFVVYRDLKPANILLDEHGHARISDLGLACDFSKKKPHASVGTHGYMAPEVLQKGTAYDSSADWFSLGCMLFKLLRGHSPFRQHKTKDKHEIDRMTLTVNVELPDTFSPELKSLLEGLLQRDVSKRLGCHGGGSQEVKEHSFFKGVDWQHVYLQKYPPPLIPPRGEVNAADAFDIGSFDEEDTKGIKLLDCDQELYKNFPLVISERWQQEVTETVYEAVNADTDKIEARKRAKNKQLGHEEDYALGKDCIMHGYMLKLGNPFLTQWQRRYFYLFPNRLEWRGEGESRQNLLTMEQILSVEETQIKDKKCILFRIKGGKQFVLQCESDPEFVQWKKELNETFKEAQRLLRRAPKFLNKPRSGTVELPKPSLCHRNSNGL

Rhodopsin kinase GRK7 = target: T3, Rhodopsin kinase GRK7 (Homo sapiens, UniProt Q8WTQ7); experiment: Inhibition of recombinant human full length GST-tagged GRK7 expressed in baculovirus using ulight topo2alpha as substrate preincubated for 60 mins followed by substrate addition measured after 10 mins by Lance TR-FRET assay
T3 sequence (Q8WTQ7 whole entry): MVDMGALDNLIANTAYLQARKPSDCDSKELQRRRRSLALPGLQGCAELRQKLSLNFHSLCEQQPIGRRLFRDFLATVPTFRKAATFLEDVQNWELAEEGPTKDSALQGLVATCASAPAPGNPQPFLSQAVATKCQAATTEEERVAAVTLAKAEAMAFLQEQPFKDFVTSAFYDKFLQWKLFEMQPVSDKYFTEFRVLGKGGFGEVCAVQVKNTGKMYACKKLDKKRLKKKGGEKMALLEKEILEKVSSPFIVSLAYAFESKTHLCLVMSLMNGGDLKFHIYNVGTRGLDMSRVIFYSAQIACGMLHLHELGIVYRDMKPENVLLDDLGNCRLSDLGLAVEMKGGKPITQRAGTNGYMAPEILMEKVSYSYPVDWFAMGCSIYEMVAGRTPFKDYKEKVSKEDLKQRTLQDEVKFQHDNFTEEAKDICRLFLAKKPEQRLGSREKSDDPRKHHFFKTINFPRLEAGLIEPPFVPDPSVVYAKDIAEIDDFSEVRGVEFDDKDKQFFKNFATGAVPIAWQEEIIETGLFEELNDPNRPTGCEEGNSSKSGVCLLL

[4] = target: G protein-coupled receptor kinase 6 (Homo sapiens, UniProt P43250); experiment: Inhibition of recombinant human full length GST-tagged GRK6 expressed in baculovirus using ulight topo2alpha as substrate preincubated for 60 mins followed by substrate addition measured after 10 mins by Lance TR-FRET assay
[5] = Inhibition of recombinant human PKA expressed in Escherichia coli using LRRASLG as substrate preincubated for 15 mins followed by substrate addition measured after 15 mins in presence of [gamma-33P]-ATP by scintillation counting
hERG (KCNH2) [6] = target: T4, hERG (KCNH2) (Homo sapiens, UniProt Q12809); experiment: Displacement of [3H]Astemizole from human ERG expressed in HEK293 cell membranes at 1 uM after 60 mins; details: membranes of HEK293 cells that express hERG, probe [3H]Astemizole
hERG (KCNH2) [7] = target: T4, hERG (KCNH2); experiment: Displacement of [3H]Astemizole from human ERG expressed in HEK293 cell membranes at 10 uM after 60 mins; details: membranes of HEK293 cells that express hERG, probe [3H]Astemizole
[8] = target: G protein-coupled receptor kinase 5 (Homo sapiens, UniProt P34947)
Description: Inhibition of recombinant human full length GST-tagged GRK5 expressed in baculovirus using ulight topo2alpha as substrate preincubated for 60 mins followed by substrate addition measured after 10 mins by Lance TR-FRET assay

[9] = target: T5, Beta-adrenergic receptor kinase 1 (Homo sapiens, UniProt P25098); experiment: Inhibition of human GRK2 expressed in HEK-B2 cells assessed as isoproterenol-stimulated cAMP accumulation preincubation for 20 mins followed by isoproterenol stimulation measured after 20 mins by cAMP ALPHA-screen assay; assay type: cell-based
T5 sequence (P25098 whole entry): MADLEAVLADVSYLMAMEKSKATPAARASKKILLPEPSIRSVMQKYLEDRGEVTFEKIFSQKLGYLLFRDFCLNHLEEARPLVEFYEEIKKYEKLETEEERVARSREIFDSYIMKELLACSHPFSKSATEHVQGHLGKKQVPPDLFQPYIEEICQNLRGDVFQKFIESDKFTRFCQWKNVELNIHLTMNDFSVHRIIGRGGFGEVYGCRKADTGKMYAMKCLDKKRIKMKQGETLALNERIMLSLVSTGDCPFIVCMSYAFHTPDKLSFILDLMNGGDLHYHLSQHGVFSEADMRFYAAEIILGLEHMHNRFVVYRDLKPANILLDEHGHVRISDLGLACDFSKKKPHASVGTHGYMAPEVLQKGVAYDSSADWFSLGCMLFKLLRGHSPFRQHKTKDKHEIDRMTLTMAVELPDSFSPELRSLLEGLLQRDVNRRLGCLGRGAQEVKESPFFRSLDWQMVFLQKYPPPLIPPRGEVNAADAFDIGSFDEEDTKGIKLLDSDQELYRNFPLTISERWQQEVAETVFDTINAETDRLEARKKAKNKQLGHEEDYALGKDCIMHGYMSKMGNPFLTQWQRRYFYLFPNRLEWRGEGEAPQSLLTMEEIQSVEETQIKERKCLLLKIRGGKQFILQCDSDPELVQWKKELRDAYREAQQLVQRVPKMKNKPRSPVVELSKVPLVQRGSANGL

Chain of Rho-associated protein kinase 2 (O75116 whole entry, the tested form may be a part): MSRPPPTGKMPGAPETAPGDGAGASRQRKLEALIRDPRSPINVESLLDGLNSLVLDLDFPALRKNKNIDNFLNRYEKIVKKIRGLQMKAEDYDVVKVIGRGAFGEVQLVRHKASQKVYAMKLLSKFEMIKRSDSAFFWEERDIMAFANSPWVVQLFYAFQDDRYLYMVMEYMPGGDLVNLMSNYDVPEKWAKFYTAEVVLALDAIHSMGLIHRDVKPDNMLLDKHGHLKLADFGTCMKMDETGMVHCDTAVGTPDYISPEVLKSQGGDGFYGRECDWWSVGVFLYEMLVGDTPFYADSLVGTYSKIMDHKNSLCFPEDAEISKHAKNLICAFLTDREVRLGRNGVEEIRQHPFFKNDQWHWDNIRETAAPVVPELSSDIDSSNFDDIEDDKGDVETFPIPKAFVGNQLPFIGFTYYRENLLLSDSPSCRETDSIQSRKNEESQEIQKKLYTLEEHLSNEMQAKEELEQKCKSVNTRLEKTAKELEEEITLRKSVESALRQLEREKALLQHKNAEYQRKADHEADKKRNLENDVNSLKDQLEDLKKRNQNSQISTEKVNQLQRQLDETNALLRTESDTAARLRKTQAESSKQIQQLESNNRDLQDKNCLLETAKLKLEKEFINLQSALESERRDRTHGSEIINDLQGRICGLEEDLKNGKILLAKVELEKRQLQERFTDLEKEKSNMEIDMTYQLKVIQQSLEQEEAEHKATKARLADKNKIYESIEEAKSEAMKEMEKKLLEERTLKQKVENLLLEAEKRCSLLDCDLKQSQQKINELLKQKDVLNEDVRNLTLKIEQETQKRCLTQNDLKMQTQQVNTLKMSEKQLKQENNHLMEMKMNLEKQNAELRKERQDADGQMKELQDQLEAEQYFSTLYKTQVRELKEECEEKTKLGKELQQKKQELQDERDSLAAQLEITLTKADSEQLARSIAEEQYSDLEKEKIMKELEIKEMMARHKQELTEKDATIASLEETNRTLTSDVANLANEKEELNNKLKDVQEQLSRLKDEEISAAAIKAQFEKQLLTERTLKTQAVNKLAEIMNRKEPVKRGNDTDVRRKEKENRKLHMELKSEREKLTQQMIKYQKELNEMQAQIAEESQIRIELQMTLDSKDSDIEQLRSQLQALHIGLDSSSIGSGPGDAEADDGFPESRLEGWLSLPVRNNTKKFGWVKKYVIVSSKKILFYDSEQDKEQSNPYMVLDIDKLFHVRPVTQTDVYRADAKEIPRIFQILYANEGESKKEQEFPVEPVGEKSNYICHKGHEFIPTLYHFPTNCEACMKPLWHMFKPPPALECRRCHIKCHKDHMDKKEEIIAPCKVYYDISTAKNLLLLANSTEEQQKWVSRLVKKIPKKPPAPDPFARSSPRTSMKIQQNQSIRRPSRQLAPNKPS
Chain of CYP3A4 (P08684 whole entry): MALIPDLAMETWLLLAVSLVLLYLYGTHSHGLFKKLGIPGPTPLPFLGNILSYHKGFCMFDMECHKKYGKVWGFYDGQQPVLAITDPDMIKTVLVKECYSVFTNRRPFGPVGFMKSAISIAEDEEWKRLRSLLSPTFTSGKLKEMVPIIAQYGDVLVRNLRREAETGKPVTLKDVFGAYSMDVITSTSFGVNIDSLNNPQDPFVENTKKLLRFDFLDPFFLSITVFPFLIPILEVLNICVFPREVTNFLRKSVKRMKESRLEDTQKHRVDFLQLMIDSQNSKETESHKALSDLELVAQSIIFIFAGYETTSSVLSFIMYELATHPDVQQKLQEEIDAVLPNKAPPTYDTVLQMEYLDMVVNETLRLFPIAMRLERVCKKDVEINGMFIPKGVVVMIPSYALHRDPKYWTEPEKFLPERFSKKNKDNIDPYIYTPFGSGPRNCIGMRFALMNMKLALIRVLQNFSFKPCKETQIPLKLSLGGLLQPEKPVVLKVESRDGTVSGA
Chain of G protein-coupled receptor kinase 5 (P34947 whole entry): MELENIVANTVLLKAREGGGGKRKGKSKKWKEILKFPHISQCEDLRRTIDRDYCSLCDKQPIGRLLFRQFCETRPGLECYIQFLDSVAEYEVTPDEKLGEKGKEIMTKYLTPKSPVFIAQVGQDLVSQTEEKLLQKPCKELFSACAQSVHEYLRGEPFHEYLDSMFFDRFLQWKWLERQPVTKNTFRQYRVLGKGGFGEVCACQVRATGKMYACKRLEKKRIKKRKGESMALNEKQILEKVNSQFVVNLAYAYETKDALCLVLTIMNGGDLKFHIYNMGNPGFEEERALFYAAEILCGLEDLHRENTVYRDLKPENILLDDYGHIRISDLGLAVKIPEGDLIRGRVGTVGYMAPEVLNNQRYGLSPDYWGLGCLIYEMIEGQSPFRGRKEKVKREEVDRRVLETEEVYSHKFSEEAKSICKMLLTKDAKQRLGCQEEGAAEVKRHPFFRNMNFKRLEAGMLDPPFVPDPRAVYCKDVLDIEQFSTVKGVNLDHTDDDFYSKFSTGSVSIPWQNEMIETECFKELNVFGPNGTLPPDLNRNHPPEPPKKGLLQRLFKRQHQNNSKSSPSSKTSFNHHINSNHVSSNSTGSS
Chain of G protein-coupled receptor kinase 6 (P43250 whole entry): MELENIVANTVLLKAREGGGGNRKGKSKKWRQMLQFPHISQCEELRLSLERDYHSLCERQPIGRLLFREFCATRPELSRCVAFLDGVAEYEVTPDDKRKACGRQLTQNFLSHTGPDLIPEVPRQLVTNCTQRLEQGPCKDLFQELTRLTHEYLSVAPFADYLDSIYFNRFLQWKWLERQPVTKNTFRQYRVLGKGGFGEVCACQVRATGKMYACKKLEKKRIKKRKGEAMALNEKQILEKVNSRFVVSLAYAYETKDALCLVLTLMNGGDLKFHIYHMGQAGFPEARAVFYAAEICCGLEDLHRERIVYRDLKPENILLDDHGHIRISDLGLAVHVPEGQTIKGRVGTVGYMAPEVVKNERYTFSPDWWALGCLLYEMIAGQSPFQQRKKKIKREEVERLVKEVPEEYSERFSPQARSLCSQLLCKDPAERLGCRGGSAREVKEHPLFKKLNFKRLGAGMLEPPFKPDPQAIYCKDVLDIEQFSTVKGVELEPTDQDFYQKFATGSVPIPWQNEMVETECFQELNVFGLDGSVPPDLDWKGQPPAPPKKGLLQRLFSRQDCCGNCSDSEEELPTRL
T4 sequence (Q12809 whole entry): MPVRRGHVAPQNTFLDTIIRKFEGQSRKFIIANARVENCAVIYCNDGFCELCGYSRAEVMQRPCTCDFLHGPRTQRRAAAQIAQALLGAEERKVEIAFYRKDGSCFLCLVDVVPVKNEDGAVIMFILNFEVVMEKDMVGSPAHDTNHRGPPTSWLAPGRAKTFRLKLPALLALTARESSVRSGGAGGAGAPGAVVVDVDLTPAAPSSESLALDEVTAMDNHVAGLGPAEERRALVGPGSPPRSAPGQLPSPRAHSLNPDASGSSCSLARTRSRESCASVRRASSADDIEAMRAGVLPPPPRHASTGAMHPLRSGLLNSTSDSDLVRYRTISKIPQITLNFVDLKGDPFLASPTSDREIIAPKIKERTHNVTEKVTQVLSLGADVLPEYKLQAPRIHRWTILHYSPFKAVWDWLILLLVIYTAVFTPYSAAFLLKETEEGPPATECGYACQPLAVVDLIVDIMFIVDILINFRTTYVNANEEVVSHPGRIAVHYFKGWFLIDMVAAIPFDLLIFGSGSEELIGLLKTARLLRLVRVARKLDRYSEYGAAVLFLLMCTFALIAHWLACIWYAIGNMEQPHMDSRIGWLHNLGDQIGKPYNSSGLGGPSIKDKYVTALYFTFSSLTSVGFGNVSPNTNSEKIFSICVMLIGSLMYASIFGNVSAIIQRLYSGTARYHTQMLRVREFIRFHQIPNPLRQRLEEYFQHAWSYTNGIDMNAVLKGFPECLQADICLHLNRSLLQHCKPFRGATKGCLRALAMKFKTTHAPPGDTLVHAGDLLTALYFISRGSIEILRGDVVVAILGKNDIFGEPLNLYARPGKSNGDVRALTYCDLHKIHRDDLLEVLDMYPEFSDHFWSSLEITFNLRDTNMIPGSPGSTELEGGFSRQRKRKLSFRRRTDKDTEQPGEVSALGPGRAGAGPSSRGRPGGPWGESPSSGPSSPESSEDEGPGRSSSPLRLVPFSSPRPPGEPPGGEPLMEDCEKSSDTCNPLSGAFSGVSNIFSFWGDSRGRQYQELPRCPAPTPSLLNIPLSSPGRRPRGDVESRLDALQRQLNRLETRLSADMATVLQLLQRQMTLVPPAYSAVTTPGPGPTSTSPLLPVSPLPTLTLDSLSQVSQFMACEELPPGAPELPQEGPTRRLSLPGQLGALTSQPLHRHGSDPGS

IC50 [1] [µM]	IC50 [2] [µM]	inhibition at 10 µM (CYP3A4) [%]	IC50 (Rhodopsin kinase GRK1) [µM]	IC50 [3] [µM]	IC50 (Rhodopsin kinase GRK7) [µM]	IC50 [4] [µM]	IC50 [5] [µM]	IC50 [8] [µM]	EC50 [9] [µM]	SMILES	inhibition at 1 h, 1 µM (hERG (KCNH2) [6]) [%]	inhibition at 1 h, 10 µM (hERG (KCNH2) [7]) [%]
1.4	8.1	44	3.1	0.0054	25	> 30	> 1	2.3	–	Cn1c(CNc2cccc(C(=O)NCc3ccccc3C(F)(F)F)c2)nnc1-c1ccncc1	9	31
0.19	0.25	51	–	–	–	–	–	–	–	CCCn1c(CNc2cccc(C(=O)NCc3c(F)cccc3F)c2)nnc1-c1ccncn1	–	–
0.62	> 10	36	–	–	–	–	–	–	930	Cn1c(CNc2cccc(C(=O)NCc3ccc(C(F)(F)F)cc3)c2)nnc1-c1ccncc1	–	–
0.32	7.4	57	–	–	–	–	–	–	–	COCCn1c(CNc2cccc(C(=O)NCc3ccccc3)c2)nnc1-c1ccncc1	–	–
0.023	4.8	96	> 30	0.0043	18	> 30	–	> 30	–	Cc1c(-c2ccncc2)n[nH]c1CNc1cccc(C(=O)NCc2ccccc2)c1	–	–
0.11	5.7	67	–	–	–	–	–	–	26	CCCn1c(CNc2cccc(C(=O)NCc3ccccc3)c2)nnc1-c1ccncc1	–	–
0.32	7.6	79	–	–	–	–	–	–	–	O=C(NCc1ccccc1C(F)(F)F)c1cccc(NCc2nnc(-c3ccncc3)n2CCO)c1	–	–
0.049	–	83	0.27	0.00065	2.4	> 30	–	1.5	–	O=C(NCc1ccccc1C(F)(F)F)c1cccc(NCc2nnc3n2CCOc2cnccc2-3)c1	–	–
0.024	6.3	91	> 30	0.0018	8.8	> 30	–	5.7	–	O=C(NCc1ccccc1)c1cccc(NCc2nc(-c3ccncc3)n[nH]2)c1	–	–
0.076	2.9	50	> 30	0.0033	> 30	> 30	–	–	–	CCn1c(CNc2cccc(C(=O)NCc3ccccc3)c2)nnc1-c1ccncc1	–	–
0.14	1.2	81	–	–	–	–	–	–	–	CCCn1c(CNc2cccc(C(=O)NCc3ccccc3C(F)(F)F)c2)nnc1-c1ccncn1	–	–
0.55	> 10	26	–	–	–	–	–	–	1900	Cn1c(CNc2cccc(C(=O)NCc3ccccc3)c2)nnc1-c1ccncc1	–	–
0.26	4.8	50	–	–	–	–	–	–	–	CC(C)n1c(CNc2cccc(C(=O)NCc3ccccc3)c2)nnc1-c1ccncc1	–	–
0.53	> 10	44	–	–	–	–	–	–	220	Cn1c(CNc2cccc(C(=O)NCc3cccc(C(F)(F)F)c3)c2)nnc1-c1ccncc1	–	–
0.72	> 10	63	–	–	–	–	–	–	–	Cn1c(CNc2cccc(C(=O)NCc3ccccc3C(F)(F)F)c2)nnc1-c1ccncn1	–	–
0.22	> 10	66	> 30	0.021	> 30	> 30	–	> 30	–	CNC(=O)c1cccc(NCc2nc(-c3ccncc3)n[nH]2)c1	–	–
1.9	> 10	24	–	–	–	–	–	–	–	Cn1c(CNc2cccc(C(=O)NCc3c(F)cccc3F)c2)nnc1-c1ccncn1	–	–

— ChEMBL document CHEMBL4038320 (J Med Chem, 2017)
